Laboratory results published in patent publication US4279904A, “3-Amino-1-benzoxepine derivatives and their salts and pharmaceutical compositions thereof” (Kali-Chemie Pharma GmbH, priority 1979, dated 1981).

Legend:
gastric peristalsis = experiment: Testing of the Gastric Peristalsis (gastric pressure waves, narcotized rats); type: in vivo, rat; details: before vs after administration; for inhibition in vivo at 20 mg/kg: Rattus norvegicus, ip, read-out: Frequency Decrease in %; for Factor of the Increase in Amplitude: i.p., 20 mg/kg
Source text: To determine the functioning of the gastric peristalsis, rats weighing about 200 g are narcotized by means of ketamine hydrochloride and xylazine. A catheter is introduced into the Vena jugularis of the narcotized rats and a tracheal catheter into the trachea. A stomach probe is inserted into their stomach and tied thereto. The probe is connected via a three-way cock with a Statham pressure imparting device (P 23 DB). The stomach is sealed off by a ligature at the pylorus and at the cardia. The stomach is filled with 3 ml of an 0.9% aqueous sodium chloride solution. The pressure waves produced by the stomach are continuously registered by a suitable recording device such as by a Watanabe Multicorder (MC 641). In order to determine the effect of the compounds to be tested, they are dissolved in physiological sodium chloride solution or are suspended in Tylose MH 50 solution. Said solutions or suspensions are administered intraperitoneally to the rats in a dose of 20 mg/kg. The amplitudes and frequencies of the pressure wave-like movements of the stomach as they occur before and after administration of the compound to be tested, are compared.
This effect in combination with a pronounced decrease in the frequencies of varying magnitude results in an improved food passage through the stomach.

[1] = Determination of the Acute Toxicity (acute seven-day toxicity); details: mouse, in vivo, ip, fasting white NMRI mouse, single i.p. dose
Protocol: The acute seven-day toxicity is determined by intraperitoneal administration of a single dose of the respective compound to a fasting white NMRI mouse. The LD50 -values are calculated via electronic data processing by a probit analysis as described in the book "Grundbegriffe der Biometrie" (Basic Biometrical Definitions) by L. Cavalli-Sforza, page 153 et seq., published by Gustav Fischer Verlag, Stuttgart, 1964.

SMILES	inhibition in vivo at 20 mg/kg (gastric peristalsis)	LD50 at 168 h [1]	Factor of the Increase in Amplitude (gastric peristalsis)
CN(C)CCCN[C@@H]1COc2ccccc2[C@H](O)C1 (relative stereo) [E]	32%	664 mg/kg	–
CCCCNC1COc2ccccc2C(=O)C1 (racemic) [Compound 7, rac.-3-(n-butylamino)-3,4-dihydro-1-benzoxepin-5(2H)-one]	28%	–	6.6
CC(C)NC1COc2ccccc2C(=O)C1 (racemic) [Compound 2, rac.-3-isopropylamino-3,4-dihydro-1-benzoxepin-5(2H)-one]	16%	183 mg/kg	2.6
CN(C)CCCNC1COc2ccc(Cl)cc2C(=O)C1 (racemic) [Compound 6, rac.-3-(γ-dimethylamino-propylamino)-7-chloro-3,4-dihydro-1-benzoxepin-5(2H)-one]	29%	296 mg/kg	3.4
O=C1CC(NCc2ccccc2)COc2ccccc21 (racemic) [Compound 3, rac.-3-benzylamino-3,4-dihydro-1-benzoxepin-5(2H)-one]	7%	253 mg/kg	3.6
CC(C)N[C@@H]1COc2ccccc2[C@H](O)C1 (relative stereo) [C]	13%	–	–
CN(C)C1COc2ccccc2C(=O)C1 (racemic) [Compound 5, rac.-3-dimethylamino-3,4-dihydro-1-benzoxepin-5(2H)-one]	12%	285 mg/kg	1.3
O[C@@H]1C[C@H](N2CCCC2)COc2ccccc21 (relative stereo) [K]	10%	–	–
CN(C)[C@@H]1COc2ccccc2[C@H](O)C1 (relative stereo) [O]	7%	–	–
O[C@@H]1C[C@H](NCc2ccccc2)COc2ccccc21 (relative stereo) [D]	21%	92 mg/kg	–
CN[C@@H]1COc2ccccc2[C@H](O)C1 (relative stereo) [A]	–	342 mg/kg	–
CN(C)CCCNC1COc2ccccc2C(=O)C1 (racemic) [Compound 4, rac.-3-(γ-dimethylamino-propylamino)-3,4-dihydro-1-benzoxepin-5(2H)-one]	25%	272 mg/kg	3.7
CCN(CC)[C@@H]1COc2ccccc2[C@H](O)C1 (relative stereo) [F]	–	183 mg/kg	–
CNC1COc2ccccc2C(=O)C1 (racemic) [Compound 1, rac.-3-methylamino-3,4-dihydro-1-benzoxepin-5(2H)-one]	8%	137 mg/kg	1.6
